Measured values as given in patent publication US8802664B2 (Bioproject, priority 2010, dated 2014).

Columns and labels:
human H4 receptor = target: T1, human H4 receptor (Homo sapiens, UniProt Q9H3N8); assay: [3H]Histamine binding on membranes of CHO cells stably expressing human H4 receptor
T1 construct: expressed in transfected cells
Procedure, shortened: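 Membranes from sub-confluent CHO-hH4 cells, 20 μg protein per well, were incubated in 50 mM Tris/HCl, 0.5 mM EDTA, pH 7.4. Nonspecific binding was defined with 10 μM JNJ 7777120. Bound radioactivity was collected on PEI-soaked GF/B filters and counted by liquid scintillation.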

| Compound | Ki or IC50 activity class (human H4 receptor) | melting point |
| --- | --- | --- |
| CCc1cccc(C(NC2CCN(C)CC2)c2nc3ccccc3[nH]2)c1 (stereo not drawn) [Example 61, [(1H-benzimidazol-2-yl)(3-ethylphenyl)methyl](1-methylpiperidin-4-yl)amine] | < 30 nM | 76 °C |
| CN1CCC(OC(c2cccc(O)c2)c2nc3ccccc3s2)CC1 (stereo not drawn) [Example 62, 3-[benzothiazol-2-yl(1-methylpiperidin-4-yloxy)methyl]phenol] | < 30 nM | 201 °C |
| CN1CCC(NC(c2cccc(OCc3ccccc3)c2)c2nc3ccccc3[nH]2)CC1 (stereo not drawn) [Example 65, [(1H-benzimidazol-2-yl)(3-benzyloxyphenyl)methyl](1-methylpiperidin-4-yl)amine] | < 30 nM | 78 °C |
| CC(C)c1cccc(C(NC2CCN(C)CC2)c2nc3ccccc3[nH]2)c1 (stereo not drawn) [Example 66, [(1H-benzimidazol-2-yl)(3-isopropylphenyl)methyl](1-methylpiperidin-4-yl)amine] | < 1000 nM | 82 °C |
| CC(C)COc1cccc(C(NC2CCN(C)CC2)c2nc3ccccc3[nH]2)c1 (stereo not drawn) [Example 67, [(1H-benzimidazol-2-yl)(3-isobutoxyphenyl)methyl](1-methylpiperidin-4-yl)amine] | < 30 nM | 99 °C |
| CC(C)CCOc1cccc(C(NC2CCN(C)CC2)c2nc3ccccc3[nH]2)c1 (stereo not drawn) [Example 68, {(1H-benzimidazol-2-yl)[3-(3-methylbutoxy)phenyl]methyl}(1-methylpiperidin-4-yl)amine] | < 300 nM | 70 °C |
| COc1cccc(C(NC2CCN(C)CC2)c2nc3ccccc3[nH]2)c1 (stereo not drawn) [Example 70, [(1H-benzimidazol-2-yl)(3-methoxyphenyl)methyl](1-methylpiperidin-4-yl)amine] | < 300 nM | 182 °C |
| CN1CCC(NC(c2cccc(OCC3CCCCC3)c2)c2nc3ccccc3[nH]2)CC1 (stereo not drawn) [Example 73, [(1H-benzimidazol-2-yl)(3-cyclohexylmethoxyphenyl)methyl](1-methylpiperidin-4-yl)amine] | < 300 nM | 88 °C |
| CSc1cccc(C(NC2CCN(C)CC2)c2nc3ccccc3[nH]2)c1 (stereo not drawn) [Example 75, [(1H-benzimidazol-2-yl)(3-methylsulfanylphenyl)methyl](1-methylpiperidin-4-yl)amine] | < 30 nM | 166 °C |
| CC(C)Oc1cccc(C(NC2CCN(C)CC2)c2nc3ccccc3[nH]2)c1 (stereo not drawn) [Example 77, [(1H-benzimidazol-2-yl)(3-isopropoxyphenyl)methyl](1-methylpiperidin-4-yl)amine] | < 300 nM | 75 °C |
| CCOc1cccc(C(NC2CCN(C)CC2)c2nc3ccccc3[nH]2)c1 (stereo not drawn) [Example 83, [(1H-benzimidazol-2-yl)(3-ethoxyphenyl)methyl](1-methylpiperidin-4-yl)amine] | < 300 nM | 74 °C |
| CC(=O)c1cccc(C(NC2CCN(C)CC2)c2nc3ccccc3[nH]2)c1 (stereo not drawn) [Example 90, 1-{3-[(1H-benzimidazol-2-yl)(1-methylpiperidin-4-ylamino)methyl]phenyl}ethanone] | < 300 nM | 198 °C |
| CN1CCC(NC(c2cccc(-c3ccccc3)c2)c2nc3ccccc3[nH]2)CC1 (stereo not drawn) [Example 94, [(1H-benzimidazol-2-yl)biphenyl-3-ylmethyl](1-methylpiperidin-4-yl)amine] | < 30 nM | 98 °C |
| CSc1ccccc1-c1cccc(C(OC2CCN(C)CC2)c2nc3ccccc3[nH]2)c1 (stereo not drawn) [Example 114, 2-[(1-methylpiperidin-4-yloxy)(2′-methylsulfanylbiphenyl-3-yl)methyl]-1H-benzimidazole] | < 300 nM | 163 °C |
| CN1CCC(OC(c2cccc(-c3ccc(C(F)(F)F)cc3)c2)c2nc3ccccc3[nH]2)CC1 (stereo not drawn) [Example 119, 2-[(1-methylpiperidin-4-yloxy)(4′-trifluoromethylbiphenyl-3-yl)methyl]-1H-benzimidazole] | < 300 nM | 95 °C |
| CN1CCC(NC(c2cccc(OC3CCCCO3)c2)c2nc3ccccc3[nH]2)CC1 (stereo not drawn) [Example 120, {(1H-benzimidazol-2-yl)[3-(tetrahydropyran-2-yloxy)phenyl]methyl}(1-methylpiperidin-4-yl)amine] | < 1000 nM | 97 °C |
| CN1CCC(OC(c2cccc(-c3ccccc3CO)c2)c2nc3ccccc3[nH]2)CC1 (stereo not drawn) [Example 123, {3′-[(1H-benzimidazol-2-yl)(1-methylpiperidin-4-yloxy)methyl]biphenyl-2-yl}methanol] | < 1000 nM | 107 °C |
| COc1ccc(COc2cccc(C(NC3CCN(C)CC3)c3nc4ccccc4[nH]3)c2)cc1 (stereo not drawn) [Example 124, {(1H-benzimidazol-2-yl)[3-(4-methoxybenzyloxy)phenyl]methyl}(1-methylpiperidin-4-yl)amine] | < 30 nM | 84 °C |
| CN1CCC(NC(c2cccc(O)c2)c2nc3ccccc3[nH]2)CC1 (stereo not drawn) [Example 126, 3-[(1H-benzimidazol-2-yl)(1-methylpiperidin-4-ylamino)methyl]phenol] | < 300 nM | 230 °C |
| Cc1ccc(COc2cccc(C(NC3CCN(C)CC3)c3nc4ccccc4[nH]3)c2)cc1 (stereo not drawn) [Example 130, {(1H-benzimidazol-2-yl)[3-(4-methylbenzyloxy)phenyl]methyl}(1-methylpiperidin-4-yl)amine] | < 300 nM | 87 °C |
| CN1CCC(NC(c2cccc([N+](=O)[O-])c2)c2nc3ccccc3[nH]2)CC1 (stereo not drawn) [Example 131, [(1H-benzimidazol-2-yl)(3-nitrophenyl)methyl](1-methylpiperidin-4-yl)amine] | < 300 nM | 254 °C |
| CN1CCC(NC(c2cccc(N=[N+]=[N-])c2)c2nc3ccccc3[nH]2)CC1 (stereo not drawn) [Example 132, [(3-azidophenyl)(1H-benzimidazol-2-yl)methyl](1-methylpiperidin-4-yl)amine] | < 300 nM | 202 °C |
| CN1CCC(OC(c2cccc(-c3ccc(NC(=O)OC(C)(C)C)cc3)c2)c2nc3ccccc3[nH]2)CC1 (stereo not drawn) [Example 138, {3′-[(1H-benzimidazol-2-yl)(1-methylpiperidin-4-yloxy)methyl]biphenyl-4-yl}carbamic acid tert-butyl ester] | < 300 nM | 135 °C |

The remaining lines, values ahead:

| Ki or IC50 activity class (human H4 receptor) | melting point | Compound |
| --- | --- | --- |
| < 300 nM | 90 °C | CN1CCC(OC(c2cccc(-c3ccccc3F)c2)c2nc3ccccc3[nH]2)CC1 (stereo not drawn) [Example 142, 2-[(2′-fluorobiphenyl-3-yl)(1-methylpiperidin-4-yloxy)methyl]-1H-benzimidazole] |
| < 30 nM | 108 °C | CN1CCC(NC(c2cccc(-c3ccco3)c2)c2nc3ccccc3[nH]2)CC1 (stereo not drawn) [Example 144, [(1H-benzimidazol-2-yl)(3-furan-2-ylphenyl)methyl](1-methylpiperidin-4-yl)amine] |
| < 300 nM | 71 °C | C=CCCOc1cccc(C(NC2CCN(C)CC2)c2nc3ccccc3[nH]2)c1 (stereo not drawn) [Example 145, [(1H-benzimidazol-2-yl)(3-but-3-enyloxyphenyl)methyl](1-methylpiperidin-4-yl)amine] |
| < 300 nM | 73 °C | CC(C)CCCOc1cccc(C(NC2CCN(C)CC2)c2nc3ccccc3[nH]2)c1 (stereo not drawn) [Example 146, {(1H-benzimidazol-2-yl)[3-(4-methylpentyloxy)phenyl]methyl}(1-methylpiperidin-4-yl)amine] |
| < 300 nM | 195 °C | CN1CCC(OC(c2cccc(SCc3ccccc3)c2)c2nc3ccccc3s2)CC1 (stereo not drawn) [Example 148, 2-[(3-benzylsulfanylphenyl)(1-methylpiperidin-4-yloxy)methyl]benzothiazole] |
| < 300 nM | 212 °C | CN1CCC(OC(c2nc3ccccc3[nH]2)c2ccccc2Cl)CC1 (stereo not drawn) [Example 151, 2-[(2-chlorophenyl)(1-methylpiperidin-4-yloxy)methyl]-1H-benzimidazole] |
| < 300 nM | 93 °C | CN1CCC(OC(c2cccc(F)c2)c2nc3ccccc3[nH]2)CC1 (stereo not drawn) [Example 155, 2-[(3-fluorophenyl)(1-methylpiperidin-4-yloxy)methyl]-1H-benzimidazole] |
| < 30 nM | 151 °C | CN1CCC(NC(c2cccc(OCc3cccc(F)c3F)c2)c2nc3ccccc3[nH]2)CC1 (stereo not drawn) [Example 162, {(1H-benzimidazol-2-yl)[3-(2,3-difluoro-benzyloxy)phenyl]methyl}(1-methylpiperidin-4-yl)amine] |
| < 300 nM | 119 °C | Cc1cccc(C(OC2CCN(C)CC2)c2nc3ccccc3[nH]2)c1 (stereo not drawn) [Example 164, 2-[(1-methylpiperidin-4-yloxy)(m-tolyl)methyl]-1H-benzimidazole] |
| < 300 nM | 221 °C | CN1CCC(OC(c2ccccc2)c2nc3cc(Cl)c(Cl)cc3[nH]2)CC1 (stereo not drawn) [Example 165, 5,6-dichloro-2-[(1-methylpiperidin-4-yloxy)phenylmethyl]-1H-benzimidazole] |
| < 30 nM | 134 °C | CN1CCC(OC(c2ccccc2)c2nc3cc(F)ccc3[nH]2)CC1 (stereo not drawn) [Example 166, 5-fluoro-2-[(1-methylpiperidin-4-yloxy)phenylmethyl]-1H-benzimidazole] |
| < 30 nM | 181 °C | CN1CCC(OC(c2nc3ccccc3[nH]2)c2ccccc2F)CC1 (stereo not drawn) [Example 167, 2-[(2-fluorophenyl)(1-methylpiperidin-4-yloxy)methyl]-1H-benzimidazole] |
| < 300 nM | 143 °C | CN1CCC(OC(c2ccccc2)c2nc3cc(Br)ccc3[nH]2)CC1 (stereo not drawn) [Example 170, 5-bromo-2-[(1-methylpiperidin-4-yloxy)phenylmethyl]-1H-benzimidazole] |
